Assays:
[1] = tested on: HIV-1; details: overexpression in virus-producing cells (Callahan et al., 1998); cited from earlier work
[2] = biological target: T1, hsc70 (Bos taurus, UniProt P19120); assay: Hsc70 ATPase assay; assay type: biochemical; parameters: purchased Stressgen; details: 28 nM hsc70, 0-176 nM UBP, 1 hr at 30° C.
Protocol: ADP was separated from ATP by thin-layer chromatography and quantified using a phosphorimager. […] The data are represented as the percent ATP hydrolysis and are plotted as a function of time from 0-75 minutes.
ATPase assays were performed essentially as described (Liberek et al., 1991, J. Biol. Chem. 266:14491-14496). […] The reactions were carried out at 30° C. in ATPase buffer (30 mM 4-(-2 hydroxymethl)-1-piperazineethanesulfonic acid (HEPES) buffer pH 7.5, 40 mM KCl, 50 mM NaCl, 5 mM MgCl2, and 2 mM dithiothreitol). […] A 5 μl aliquot of each reaction was directly loaded onto a polyethylamine-cellulose (PEI)-thin layer sheet (Selecto Scientific, Suwanee, Ga.). The products were separated from the substrate by chromatography using 1 M formic acid/1 M LiCl (1:1, vol/vol) as a vehicle. The location of ADP and ATP on the plates was visualized by use of a Phosphorimager (Molecular Dynamics, San Jose, Calif.). […] Five μl aliquots of each reaction were taken at time points of 0, 15, 30, 45, 60, 75 minutes. The samples were analyzed as previously described. Data were quantified and expressed as the percent ATP hydrolysis.

[3] = tested on: hsp90; assay: UBP far-western analysis on hsp90; assay type: binding; details: purified hsp90
Protocol: The numbers to the left of the blots indicate the molecular weights in kilodaltons. The regions of UBP contained in each fusion construct are diagrammed below the blots. The right column summarizes the results: a plus symbol indicates binding and a minus symbol indicates no binding.
Western blots were performed using standard techniques. Briefly, 30 μg HeLa cytoplasmic extract or 20 ng of hsc70, hsp70, or hsp90 were denatured in 1×SDS sample buffer. The samples were loaded on a 10% polyacrylamide gel. Separated protein was transferred to nitrocellulose membranes. The membranes were blocked in 5% dry milk protein in TBS (20 mM Tris [pH 7.4], 100 mM NaCl) for 45 min. […] Primary antibody, either anti-hsp70 or hsp90 monoclonal antibodies, or anti-UBP rabbit polyclonal antibody was incubated with the blots at appropriate concentrations (1:1000 dilutions for each) in 5% milk protein in TBS for 2 hours at 4° C. with gentle rocking. The membranes were washed with TBS for 10 minutes. Secondary antibody, either alkaline phosphatase conjugated goat anti-mouse IgG or alkaline phosphatase conjugated goat anti-rabbit IgG diluted at 1:5000 in 5% Milk in TBS, was incubated with the blots for 2 hours at 4° C. with gentle rocking. […]

[4] = biological target: T1, hsc70; assay: GST-UBP/hsc70 pull down assay with NaCl washes; assay type: binding; parameters: purchased Stressgen; details: washes of increasing NaCl, up to 0.5 M NaCl
From the text: (§1) FIG. 13A: Thirty μg of HeLa cell lysate was separated by SDS-PAGE in three identical lanes, blotted to nitrocellulose and probed with either, no probe (none), GST alone, or GST-UBP. The far-western blot was then developed with anti-GST antibody to reveal bands which interact with UBP. The arrow to the right indicates a 70 kD band detected by the GST-UBP fusion. The numbers to the left of each blot represent molecular weights in kilodaltons. […] FIG. 13C, Samples from the GST-UBP pull down assay were analyzed by western blot for the presence hsc70. At the bottom of the gel, the contents of each reaction are indicated by the plus symbols. The NaCl concentration of the washing buffer (100, 200, 300, and 500 mM) is indicated at the top of each lane. The arrow to the right of the blot indicates the position of the hsc70 band.
Either GST or GST-UBP protein was incubated with a 100 μl bed volume of beads in a total volume of 300 μl of binding buffer at 4° C. with gentle rocking for 2 hours. The beads were washed and then blocked with 5% BSA in binding buffers. The beads were washed in binding buffer then incubated with 200 ng of hsc70 in binding buffer for 2 hours at 4° C. […] The samples were heated to 80° C. for 3 minutes then supernatants recovered by centrifugation were analyzed by western blot for hsc70.

[5] = biological target: T1, hsc70; assay: Refolding of heat-denatured luciferase by hsc70; details: 28 nM hsc70, 1 mM ATP, 0 to 100 minutes at 30° C.
[6] = biological target: T1, hsc70; assay: UBP far-western analysis on hsc70; assay type: binding; parameters: purchased Stressgen; details: GST fusions as probe
From the text: as §1
The term “hsc70” is used when referring to both hsp70 and its nearly identical constitutive counterpart, hsc70. […] The numbers to the left of the blots indicate the molecular weights in kilodaltons. The diagram below the blots indicates regions of UBP contained in each fusion construct. The column to the right summarizes the results, where a plus symbol indicates binding and a minus symbol indicates no binding.
Western blots were performed using standard techniques. […]

[7] = tested on: SN hantavirus; assay type: cell-based, Sin Nombre virus

T1 sequence (P19120 2-650 limits assumed): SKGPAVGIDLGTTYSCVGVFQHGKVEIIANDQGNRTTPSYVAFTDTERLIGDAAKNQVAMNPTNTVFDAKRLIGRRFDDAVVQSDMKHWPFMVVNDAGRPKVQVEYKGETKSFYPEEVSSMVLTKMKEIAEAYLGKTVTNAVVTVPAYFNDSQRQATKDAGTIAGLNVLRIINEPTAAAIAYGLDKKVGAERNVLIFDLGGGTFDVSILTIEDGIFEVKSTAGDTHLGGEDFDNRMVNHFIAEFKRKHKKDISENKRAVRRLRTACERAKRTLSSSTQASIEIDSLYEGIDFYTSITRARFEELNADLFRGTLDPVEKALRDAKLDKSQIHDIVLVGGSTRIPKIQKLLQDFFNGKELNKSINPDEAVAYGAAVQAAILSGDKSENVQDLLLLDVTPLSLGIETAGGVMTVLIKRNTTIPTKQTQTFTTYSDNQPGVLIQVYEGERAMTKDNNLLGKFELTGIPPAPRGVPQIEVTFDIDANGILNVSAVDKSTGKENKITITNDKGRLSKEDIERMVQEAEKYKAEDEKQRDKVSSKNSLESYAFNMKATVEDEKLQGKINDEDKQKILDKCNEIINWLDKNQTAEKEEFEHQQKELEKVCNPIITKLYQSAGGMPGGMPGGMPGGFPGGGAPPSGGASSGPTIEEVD

Molecule | HIV-1 virion release [1] | hsc70-mediated hydrolysis of ATP [2] | association with hsp90 [3] | stability of UBP-hs70 interaction to NaCl washes [4] | inhibition of hs70-dependent refolding of luciferase [5] | interaction with hsc70 [6] | inhibition of viral RNA titers [7] [fold] | viral RNA titers after heat shock [7]
UBP: Viral protein U (Vpu) binding protein, cellular tetratricopeptide repeat (TPR) co-chaperone family member | significant reduction | negatively affected | could associate | maintained even in the presence of relatively high salt concentrations | about 30% | does stably associate | – | –
O=c1c(O)c(-c2ccc(O)c(O)c2)oc2cc(O)cc(O)c12 [quercetin] | – | – | – | – | – | – | 7.3 | did not have increased levels of viral RNA titers

From patent publication US20050233963A1 (priority 2000, published 2005)
